# From publication PMC12191924, “A new naphthalene-based fluorogenic substrate for cytochrome P450 4A11” (Biochemical Journal, 2025)
# Read-outs that look alike come from different tables or passages of the source.
# Tests used:
# [1] = MONACRA O-demethylation by monkey liver microsomes, FA-AAA formaldehyde assay; assay type: in vitro ADME, cynomolgus monkey (Macaca fascicularis); conditions: cynomolgus monkey, liver microsomes, MLM, FA assay, 20-min incubation at 30°C
# Excerpt: (§1) To probe if MONACRA can be metabolized to hydroxy-naphthyl acrylic acid (HONACRA) by liver microsomes, we utilized our high-throughput fluorimetric assay of formed formaldehyde with acetoacetanylide (FA-AAA assay, [34]). In our initial experiments, we used cynomolgus monkey (Macaca fascicularis) liver microsomes (MLM).
# (§2) Figure 3: O-demethylation of 3-(6-methoxynaphthalen-2-yl)acrylic acid (MONACRA) by monkey liver microsomes (MLM). […] Panel B exemplifies the substrate saturation profile of MONACRA demethylation by MLM (0.98 mg/ml) determined by formed formaldehyde with acetoacetanylide (FA-AAA) assay with 20-min incubation at 30°C. The datasets shown in the figures represent averages of the results of two individual experiments, and the error bars indicate the standard deviations.
# (§3) MONACRA demethylation was monitored by quantifying the amount of formed formaldehyde using a high-throughput fluorimetric assay based on the Hantzsch reaction with acetoacetanilide. The plates were prepared as described above. The assays were executed as described earlier, except for monitoring the formation of DPDL by the spectra of its emission with excitation at 395 nm instead of the spectra of excitation, as it was described earlier. This modification of the assay procedure was done because of an ample overlap of the spectra of excitation of MONACRA and HONACRA with that of DPDL.
# [2] = tested on: monkey liver microsomes (MLM); experiment: as above; assay type: in vitro ADME, cynomolgus monkey (Macaca fascicularis); conditions: sum of two Michaelis–Menten components
# Excerpt: as §1, §2, §3
# [3] = tested on: pooled human liver microsomes (HLM); experiment: Substrate saturation profiles of MONACRA metabolism by pooled HLM, global fitting; assay type: in vitro ADME; conditions: for Km: global fitting of seven pooled HLM preparations
# Excerpt: To probe the MONACRA metabolism by the human liver P450 system, we explored the SSPs of our new fluorogenic substrate by seven different pooled HLM preparations with P450 pool composition characterized by a global proteomics toolkit. […] The first two principal components cover 99.4% of the overall differences between the individual SSPs. While the first principal component mainly reflects the differences in SSP amplitude, the second PC is responsible for the changes in the contribution of the high- and low-affinity components. Global fitting of the dataset with a combination of three Michaelis–Menten equations yielded the components with K M values of 21, 213, and 730 µM (Figure 10C). The combinations of these three Michaelis–Menten components approximate all individual SSPs of the dataset with a square correlation coefficient (R ^2) higher than 0.998.
# Figure 10: Substrate saturation profiles (SSPs) of 3-(6-methoxynaphthalen-2-yl)acrylic acid (MONACRA) metabolism by seven pooled preparations of human liver microsomes (HLMs) and their global analysis. The HLM preparations used in this study and their designations are described in the “Materials and Methods” section of the article. […] These two principal components cover 99.4% of the overall differences between the SSPs. […] The substance label MONACRA is taken from the axis title, as no other label is printed.
# This study used preparations of pooled HLMs from 50, 150, or 200 donors (mixed gender). The preparations CDN, DNJ, and WGP were INVITROCYP 150-Donor Human Liver Microsomes obtained from BioIVT Corporation (Westbury, NY). Lot EGW is INVITROCYP M-Class 50-Donor HLM procured from the same company. Lots 1,910,096 and 1,210,347 were XTreme 200 Mixed Gender HLM (200 donors) purchased from XenoTech LLC (Kansas City, KS), currently a part of BioIVT. Lot 2,110,263 corresponds to mixed gender HLM from 50 donors from the same company. These lots are referred to herein as X096, X347, and X263, respectively. The supplier of the HLM preparations used in our studies, BioIVT Corporation, has declared to adhere to the regulations of the Department of Health and Human Services for the protection of human subjects (45 CFR §46.116 and §46.117) and Good Clinical Practice, (ICH E6) in obtaining the samples of human tissues used for producing the preparations of human subcellular fractions available from these companies.
# The MONACRA metabolism experiments were conducted with 12 MONACRA stock solutions in the Incubation Buffer (0.1 M Hepes buffer pH 7.4 containing 60 mM KCl) with concentrations ranging from 0 to 3.3 mM prepared with serial dilution. A 0.3 M stock solution of MONACRA in DMSO was diluted by the Incubation Buffer to prepare the most concentrated (3.3 mM) solution in the series. This series of stock solutions provided the MONACRA concentrations in the incubation mixture decreasing from 825 to 0 µM with a dilution factor of 1.73333 (≈√3). The procedure of preparing the multiwell plates for activity assays was similar to that described earlier for FA-based assays. The prepared plate was placed into a heater-shaker module with a PCR-plate adapter in location 1 of the OT-2 deck. Suspensions of microsomes were diluted to the desired concentration (0.02–0.1 µM P450 for recombinant enzymes and 0.3–1 mg/ml for HLM samples) and placed into all eight wells of the first row of a PCR plate (96-well semi-skirted PCR plate, BrandTech Scientific Inc., Essex, CT), 255 µl per well. The PCR plate was inserted into a pre-cooled PCR-plate cooling block (Eppendorf, Hamburg, Germany) and placed at position 5 of the OT-2 deck. An Azzota deep-well plate placed in location 6 contained 0.4 ml of 0.3 M solution trichloroacetic acid as a quenching reagent. The second row of the same plate contained 0.6 ml of 2.4 molar Na-glycine buffer, pH 10.4. […]
# [4] = across seven pooled HLM preparations
structure (smiles),measurement,setting,value
"COc1ccc2cc(C=CC(=O)O)ccc2c1 [MONACRA, 3-(6-methoxynaphthalen-2-yl)acrylic acid]",Km at 20 min,"[1]; read-out: KM, first of two Michaelis–Menten components",28.4 µM
same,Km at 20 min,"[1]; read-out: KM, second of two Michaelis–Menten components",260 µM
same,total Vmax,[2],17.2 mol FA per mol of NADPH-cytochrome P450 reductase (CPR) per minute
same,F 1 (fractional contribution of high-affinity phase),[3]; HLM sample CDN,0.1%
same,F 2 (fractional contribution of middle-affinity phase),[3]; HLM sample CDN,68.7%
same,F 3 (fractional contribution of low-affinity phase),[3]; HLM sample CDN,31.2%
same,F 1 (fractional contribution of high-affinity phase),[3]; HLM sample DNJ,0.5%
same,F 2 (fractional contribution of middle-affinity phase),[3]; HLM sample DNJ,91.6%
same,F 3 (fractional contribution of low-affinity phase),[3]; HLM sample DNJ,7.9%
same,F 1 (fractional contribution of high-affinity phase),[3]; HLM sample EGW,2.5%
same,F 2 (fractional contribution of middle-affinity phase),[3]; HLM sample EGW,97.5%
same,F 3 (fractional contribution of low-affinity phase),[3]; HLM sample EGW,0.0%
same,F 1 (fractional contribution of high-affinity phase),[3]; HLM sample WGP,0.0%
same,F 2 (fractional contribution of middle-affinity phase),[3]; HLM sample WGP,34.4%
same,F 3 (fractional contribution of low-affinity phase),[3]; HLM sample WGP,65.6%
same,F 1 (fractional contribution of high-affinity phase),[3]; HLM sample X096,9.8%
same,F 2 (fractional contribution of middle-affinity phase),[3]; HLM sample X096,0.0%
same,F 3 (fractional contribution of low-affinity phase),[3]; HLM sample X096,90.2%
same,F 1 (fractional contribution of high-affinity phase),[3]; HLM sample X263,21.7%
same,F 2 (fractional contribution of middle-affinity phase),[3]; HLM sample X263,21.5%
same,F 3 (fractional contribution of low-affinity phase),[3]; HLM sample X263,56.8%
same,"fraction of the high-affinity phase, average",[3]; [4],5.5%
same,"fraction of the lowest affinity component, average",[3]; [4],45.3%
same,"fraction of the lowest affinity component, range",[3]; [4],0–90%
same,"fraction of the middle-affinity phase, average",[3]; [4],49.2%
same,"fraction of the middle-affinity phase, range",[3]; [4],0–100%
same,Km,[3]; read-out: KM of high-affinity Michaelis–Menten component,21 µM
same,Km,[3]; read-out: KM of low-affinity Michaelis–Menten component,730 µM
same,Km,[3]; read-out: KM of middle-affinity Michaelis–Menten component,213 µM
